From PubChem BioAssay AID1963852 (Molecular Pharmacology Branch, DTP, NCI, 2024)
Several values for one entry are separate records, joined by “and”; a condition that tells them apart may be missing. Identical values can stand only once.

Tested on: 282377-053-R-J1-PDC complex spheroid viability
Assay: Anticancer human tumor 282377-053-R-J1-PDC patient-derived colon adenocarcinoma cell line growth inhibition [POLQ]
Settings: for viability, T/C: stronger effect = lower value
Protocol: Multicellular complex tumor spheroid response to Polymerase (POL) inhibitors (novobiocin, ART-558, RP6685) in combination with a variety of drugs and investigational agents in selected tumor cell lines
The POL inhibitors (novobiocin, ART-558, and RP6685) were evaluated both individually and in combination with standard of care and investigational anticancer small molecules within a complex spheroid model of solid tumors. . Complex spheroids include a stromal component modeled by human endothelial cells (HUVEC) and fibroblasts modeled by human mesenchymal stem cells (MSCs). The concentration ranges selected for each drug and investigational agent were based upon clinically achievable concentrations if the clinical Cmax of the agent was known.
Compounds. The drugs and investigational agents: novobiocin (NSC847541), ART-558 (NSC835418), RP-6685 (NSC848927), peposertib (NSC802822), ceralasertib (NSC780249), elimusertib (NSC800525), camonsertib (NSC841442), AZD-1390 (NSC803789), olaparib (NSC753686), talazoparib (NSC767125), rucaparib (NSC756644), sotorasib (NSC818433), MRTX-1133 (NSC836407), SN-38 (NSC673596), topotecan (NSC609699), epotoside (NSC141540), doxorubicin (NSC123127), gemcitabine (NSC613327), 5-fluorouracil (NSC19893), paclitaxel (NSC125973), vemurafenib (NSC761431), MSA-2 (NSC828583), SN-011 (NSC837082), adavosertib (NSC754352), prexasertib (NSC758257), carboplatin (NSC241240) and oxaliplatin (NSC266046), were obtained from the National Cancer Institute (NCI) Developmental Therapeutics Program Chemical Repository (21). The FDA-approved anticancer drug set is available from the Developmental Therapeutics Program at https://dtp.cancer.gov/organization/dscb/obtaining/. […] The stock solutions were prepared in dimethyl sulfoxide (DMSO, Sigma-Aldrich, St. Louis, MO, cat. D2650), except for the platinum compounds which were prepared in saline (Quality Biological, Gaithersburg, MD, cat. 114-055-101), at 800-fold the tested concentration and stored at -70 degrees C prior to their use. All drugs and investigational agents were tested over a range starting from a high concentration at or near the clinical Cmax and decreasing in half-log increments. If the clinical Cmax for an agent had not been determined, the highest concentration tested was 10 microM, except for SN-38, which was tested at a high concentration of 1 microM.
Cell Culture. All cells were maintained in an incubator at 37 degrees C and 5% CO2 with 95% humidity. The PDC lines were cultured according to standard operating procedures established by the NCI PDMR (https://pdmr.cancer.gov). Table 3 of the manuscript, lists the cell lines along with the number of the three cell types plated to form the mct-spheroids and media for tumor cell growth. After thawing, all PDC lines, except 997537-175-T-J1-PDC and 415267-285-R-J2-PDC, were cultured in Matrigel-coated flasks prepared with a working solution of 1X Ham's F-12 nutrient mix, without supplementation (Thermo Fisher Scientific, cat. 11765054), 100 U/mL penicillin-streptomycin (Thermo Fisher Scientific, cat. 15140122), and 2.5% Matrigel (Corning Inc., Corning, NY, cat. 354248) for the first three passages. The two PDC lines 997537-175-T-J1-PDC and 415267-285-R-J2-PDC were cultured on uncoated flasks. The 857933-349-R-J2-PDC line was cultured in 6C/Colon 1B media containing advanced DMEM/F-12 (Thermo Fisher Scientific, cat. 12634028), 10 mM HEPES (Thermo Fisher Scientific, cat. 15630080), 1X GlutaMAX supplement (Thermo Fisher Scientific, cat. 35050061), 0.1 mg/mL primocin (InvivoGen, San Diego, CA, cat. ant-pm-2), 10% defined fetal bovine serum, heat inactivated (HyClone Laboratories Inc., Logan, UT, cat. SH30070.03HI), 50% L-WRN conditioned media (ATCC, cat. CRL-3276), 1.25 mM N-Acetyl-L-cysteine (Sigma-Aldrich, cat. A9165), 10 mM nicotinamide (Sigma-Aldrich, cat. N0636), 1X B-27 supplement (Thermo Fisher Scientific, cat. 17504044), 1X N-2 supplement (Thermo Fisher Scientific, cat. […]

[1] = compound alone, run of 10/31/2023
[2] = compound alone, run of 11/06/2023
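Also: spheroids exposed to compounds for seven days.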
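For viability, T/C in this document: 100% = DMSO vehicle control viability.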

Structure (SMILES)	viability, T/C (compound 0.0316 µM)	viability, T/C (compound 0.1 µM)	viability, T/C (compound 0.316 µM)	viability, T/C (compound 1 µM)	viability, T/C (compound 3.16 µM)	viability, T/C (compound 10 µM)	IC50 (curve of compound)	IC50 [1]	viability, T/C (compound 0.00316 µM)	viability, T/C (compound 0.01 µM)	IC50 [2]	viability, T/C (compound 0.000316 µM)	viability, T/C (compound 0.001 µM)
CNCc1ccc(-c2[nH]c3cc(F)cc4c3c2CCNC4=O)cc1	94% and 107% and 86.8%	89.3% and 94.2% and 86.3%	113% and 102% and 114%	117% and 101% and 95.7%	128% and 105% and 116%	125% and 115% and 151%	> 10000 nM	–	–	–	–	–	–
COC1C(OC(N)=O)C(O)C(Oc2ccc3c(O)c(NC(=O)c4ccc(O)c(CC=C(C)C)c4)c(=O)oc3c2C)OC1(C)C (stereo not given)	94.6% [middle of 13 runs]	–	105% [middle of 13 runs]	101% [middle of 13 runs]	101% [middle of 13 runs]	101% [middle of 13 runs]	–	> 10000 nM	–	–	–	–	–
COc1cc(C2c3cc4c(cc3C(OC3OC5COC(C)OC5C(O)C3O)C3COC(=O)C23)OCO4)cc(OC)c1O (stereo not given)	86.7% and 90% and 76.8%	108% and 96.2% and 104%	94.2% and 108% and 83%	124% and 104% and 96.8%	82.7% and 105% and 70.8%	58% and 81.8% and 50.9%	> 10000 nM	–	–	–	–	–	–
COc1cc2cc(C(=O)CCC(=O)O)sc2cc1OC	94.6% and 86.1% and 105%	98.1% and 93.6% and 93.2%	108% and 97% and 105%	111% and 96.9% and 98.6%	103% and 107% and 127%	93.6% and 102% and 101%	> 10000 nM	–	–	–	–	–	–
COc1ccc([C@@H](O)c2cc(-c3ncnc4cc(N5CCOCC5)ccc34)c(F)cc2Cl)nn1	95.7% and 94.3% and 98.1%	92.2% and 99.3% and 91.8%	112% and 94.1% and 106%	88.9% and 98.7% and 102%	82.5% and 101% and 87.2%	71.8% and 84.8% and 82.2%	> 10000 nM	–	–	–	–	–	–
COc1cccc(OCCCN)c1-c1cc(Nc2cnc(C#N)cn2)n[nH]1	76.9% and 82.1% and 72.1%	49.5% and 74.7% and 75.6%	37.2% and 63.1% and 52.5%	26.8% and 44% and 43.3%	–	–	112 nM and 731 nM and 534 nM	–	107% and 99.4% and 101%	94.1% and 89.1% and 85.9%	–	–	–
COc1cccc2c1C(=O)c1c(O)c3c(c(O)c1C2=O)CC(O)(C(=O)CO)CC3OC1CC(N)C(O)C(C)O1 (stereo not given)	98.8% and 96% and 104%	83.9% and 92.9% and 87.7%	62.9% and 125% and 50.8%	17.3% and 111% and 20.5%	0.93% and 18.7% and 1.37%	2.95% and 3.23% and 2.45%	421 nM and 2090 nM and 336 nM	–	–	–	–	–	–
Cc1cccc(N(C)C(=O)C2C(O)CCN2c2nc(C)cc(C(F)(F)F)c2C#N)c1 (stereo not given)	–	105% [middle of 13 runs]	–	–	–	–	–	> 10000 nM	–	–	> 10000 nM	–	–
Cn1ncnc1[C@H]1c2n[nH]c(=O)c3cc(F)cc(c23)N[C@@H]1c1ccc(F)cc1	110% and 98.3% and 105%	90.5% and 95.2% and 106%	–	–	–	–	> 100 nM	–	76.2% and 90.7% and 93.6%	108% (2×) and 102%	–	97.4% and 91% and 104%	95.4% and 95.3% and 93.1%
Nc1ccc(C#CCN(C(=O)Cc2ncc(C(F)(F)F)cc2C(F)(F)F)c2ccc(F)cc2)nn1	92.4% [middle of 13 runs]	–	–	99.5% [middle of 12 runs]	102% [middle of 13 runs]	114% [middle of 13 runs]	–	–	–	–	> 10000 nM	–	–
Nc1ccn(C2OC(CO)C(O)C2(F)F)c(=O)n1 (stereo not given)	74% and 105% and 75.7%	45.1% and 88.6% and 54.5%	30.1% and 97.8% and 29.1%	23.5% and 84.4% and 33.9%	23.9% and 84% and 18.8%	13.4% and 71.6% and 11.1%	–	–	–	–	–	–	–
O=C(Nc1ccc(O)c(NS(=O)(=O)c2ccc(F)cc2)c1)c1ccc(-c2ccccc2)cc1	110% and 91.2% and 91.8%	98.8% and 86.6% and 102%	108% and 92.9% and 112%	113% and 95.5% and 102%	116% and 112% and 121%	116% (2×) and 109%	> 10000 nM	–	–	–	–	–	–
O=C(c1cc(Cc2n[nH]c(=O)c3ccccc23)ccc1F)N1CCN(C(=O)C2CC2)CC1	96.2% and 95.6% and 96.1%	94.5% and 97.4% and 107%	118% and 105% and 95.8%	122% and 110% and 114%	100% and 97.5% and 110%	95.8% and 105% and 110%	> 10000 nM	–	–	–	–	–	–
O=c1[nH]cc(F)c(=O)[nH]1	91.8% and 103% and 97.7%	109% and 108% and 95%	86.7% and 107% and 114%	96.3% and 108% and 78.9%	68.2% and 98.1% and 75.9%	71% and 93.2% and 71.8%	> 10000 nM	–	–	–	–	–	–
